Source: ChEMBL document CHEMBL1201862, “PubChem BioAssay data set” (2004)
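Grown in 96-well plates, cells were treated for 48 hours with each compound at five concentrations. Insufficient inhibition: endpoint recorded as highest concentration tested. GI50 is the concentration that inhibits growth by half.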 Active and inactive are the calls of the source. Rule as the data show it: active = GI50 up to about 1.1 µM and inactive = higher.

Key:
Assay in all cases: inhibition of tumour cell growth, NCI panel, 48 h
SK-MEL-5 = system: SK-MEL-5
SR = system: SR
SF-268 = system: SF-268
OVCAR-8 = system: OVCAR-8
Malme-3M = system: Malme-3M
OVCAR-3 = system: OVCAR-3
SF-539 = system: SF-539
SK-OV-3 = system: SK-OV-3
HCT-116 = system: HCT-116
OVCAR-4 = system: OVCAR-4
M14 = system: M14
RPMI-8226 = system: RPMI-8226
HCC 2998 = system: HCC 2998
HCT-15 = system: HCT-15
RXF 393 = system: RXF 393
LOX IMVI = system: LOX IMVI

| SMILES | GI50 (SK-MEL-5) | GI50 (SR) | GI50 (SF-268) | GI50 (OVCAR-8) | GI50 (Malme-3M) | GI50 (OVCAR-3) | GI50 (SF-539) | GI50 (SK-OV-3) | GI50 (HCT-116) | GI50 (OVCAR-4) | GI50 (M14) | GI50 (RPMI-8226) | GI50 (HCC 2998) | GI50 (HCT-15) | GI50 (RXF 393) | GI50 (LOX IMVI) |
| --- | --- | --- | --- | --- | --- | --- | --- | --- | --- | --- | --- | --- | --- | --- | --- | --- |
| COc1ccc(CCc2cc(OC)c(O)c(OC)c2)cc1 | 32.8 µM (inactive) | 37.3 µM (inactive) | 73.5 µM (inactive) | > 100 µM (inactive) | 74.1 µM (inactive) | 79.4 µM (inactive) | 60.7 µM (inactive) | > 100 µM (inactive) | 59 µM (inactive) | 81.5 µM (inactive) | 77.3 µM (inactive) | 50.8 µM (inactive) | 52 µM (inactive) | – | – | – |
| NC(=O)c1ccc([N+](=O)[O-])cc1 | > 100 µM (inactive) | – | > 100 µM (inactive) | > 100 µM (inactive) | > 100 µM (inactive) | > 100 µM (inactive) | > 100 µM (inactive) | > 100 µM (inactive) | – | – | > 100 µM (inactive) | > 100 µM (inactive) | > 100 µM (inactive) | > 100 µM | > 100 µM (inactive) | > 100 µM (inactive) |
| O=C(O)C1CCC(=O)N1C(=O)COc1cc(Cl)c(Cl)cc1Cl (configuration not stated) | > 100 µM (inactive) | – | > 100 µM (inactive) | > 100 µM (inactive) | – | > 100 µM (inactive) | – | > 100 µM (inactive) | > 100 µM (inactive) | > 100 µM (inactive) | > 100 µM (inactive) | – | – | > 100 µM | – | > 100 µM (inactive) |
| CCCCC1CC(c2ccc(Cl)cc2)=NO1 (configuration not stated) | > 100 µM (inactive) | > 100 µM (inactive) | > 100 µM (inactive) | > 100 µM (inactive) | > 100 µM (inactive) | > 100 µM (inactive) | > 100 µM (inactive) | > 100 µM (inactive) | > 100 µM (inactive) | > 100 µM (inactive) | > 100 µM (inactive) | > 100 µM (inactive) | > 100 µM (inactive) | > 100 µM | – | – |
| Cn1nc(-c2ccccc2)c(C(=O)/C=C/c2ccc(F)cc2)c(N2CCCC2)c1=O | 12.4 µM (inactive) | – | 14.3 µM (inactive) | 15.1 µM (inactive) | – | – | 13.6 µM (inactive) | 19.5 µM (inactive) | 6.5 µM (inactive) | – | 15.9 µM (inactive) | 6.62 µM (inactive) | – | 12.2 µM | 8.2 µM (inactive) | 17.9 µM (inactive) |
| O=C(c1ccc(Cl)cc1Cl)N(/N=C/C=C/c1ccccc1)c1nnc(-c2ccccc2)c(-c2ccccc2)n1 | > 100 µM (inactive) | – | > 100 µM (inactive) | > 100 µM (inactive) | > 100 µM (inactive) | > 100 µM (inactive) | > 100 µM (inactive) | > 100 µM (inactive) | – | > 100 µM (inactive) | – | 37.5 µM (inactive) | > 100 µM (inactive) | > 100 µM | > 100 µM (inactive) | > 100 µM (inactive) |
| O=c1c2ccccc2nc(-c2ccccc2)n1NC1OC(CO)C(O)C(O)C1O (configuration not stated) | > 100 µM (inactive) | – | > 100 µM (inactive) | > 100 µM (inactive) | > 100 µM (inactive) | > 100 µM (inactive) | > 100 µM (inactive) | > 100 µM (inactive) | > 100 µM (inactive) | > 100 µM (inactive) | > 100 µM (inactive) | > 100 µM (inactive) | > 100 µM (inactive) | > 100 µM | – | – |
| CC(C)CC(N)C(=O)OCN1C(=O)C2C3C=CC(C2C1=O)C1C2C(=O)N(COC(=O)C(N)CC(C)C)C(=O)C2C31 (configuration not stated) | > 100 µM (inactive) | – | > 100 µM (inactive) | > 100 µM (inactive) | > 100 µM (inactive) | > 100 µM (inactive) | > 100 µM (inactive) | > 100 µM (inactive) | > 43.8 µM (inactive) | > 100 µM (inactive) | > 100 µM (inactive) | > 48.2 µM (inactive) | > 100 µM (inactive) | > 45 µM | > 100 µM (inactive) | > 41.5 µM (inactive) |
| O=C1[C@@H]2C(c3c(Cl)cccc3Cl)=NO[C@@H]2C(=O)N1c1ccc(Cc2ccc(N3C(=O)[C@H]4C(c5c(Cl)cccc5Cl)=NO[C@H]4C3=O)cc2)cc1 | > 100 µM (inactive) | – | > 100 µM (inactive) | > 100 µM (inactive) | > 100 µM (inactive) | > 100 µM (inactive) | > 100 µM (inactive) | > 100 µM (inactive) | – | > 100 µM (inactive) | > 100 µM (inactive) | > 100 µM (inactive) | > 100 µM (inactive) | > 100 µM | > 100 µM (inactive) | > 100 µM (inactive) |
| COc1cccc(N2C(=O)[C@H]3CC(C)c4c([nH]c5ccccc45)[C@H]3C2=O)c1 (some centres not stated) | 63.8 µM (inactive) | – | > 100 µM (inactive) | 50 µM (inactive) | 92.3 µM (inactive) | 40.1 µM (inactive) | 29.1 µM (inactive) | 27.7 µM (inactive) | – | – | > 100 µM (inactive) | 38.9 µM (inactive) | > 100 µM (inactive) | > 100 µM | 13.9 µM (inactive) | 50.6 µM (inactive) |
| CC(C)=CCC(OC(=O)C=C(C)C)c1cc(O)c2c(c1O)C(=O)C=CC2=O (configuration not stated) | 0.883 µM (active) | – | 1.39 µM (inactive) | 0.33 µM (active) | 0.428 µM (active) | 0.839 µM (active) | 2.3 µM (inactive) | 5.45 µM (inactive) | 0.279 µM (active) | 0.78 µM (active) | – | 0.171 µM (active) | 2.4 µM (inactive) | 0.398 µM | 0.218 µM (active) | 0.261 µM (active) |
| COc1cc(/N=N\c2ccc(OC)c(S(=O)(=O)O)c2)c(C)cc1/N=N\c1ccc(/C=C/c2ccc(/N=[N+](/[O-])c3ccc(/C=C/c4ccc(/N=N/c5cc(C)c(/N=N\c6ccc(OC)c(S(=O)(=O)O)c6)cc5OC)cc4S(=O)(=O)O)c(S(=O)(=O)O)c3)cc2S(=O)(=O)O)c(S(=O)(=O)O)c1 | > 100 µM (inactive) | – | > 100 µM (inactive) | > 100 µM (inactive) | > 100 µM (inactive) | > 100 µM (inactive) | > 100 µM (inactive) | > 100 µM (inactive) | > 100 µM (inactive) | > 100 µM (inactive) | – | > 100 µM (inactive) | > 100 µM (inactive) | > 100 µM | > 100 µM (inactive) | > 100 µM (inactive) |
| O=C(O)c1cc(=O)c2cc(C(=O)c3cccs3)c(Cl)c(Cl)c2o1 | > 100 µM (inactive) | > 100 µM (inactive) | > 100 µM (inactive) | > 100 µM (inactive) | > 100 µM (inactive) | > 100 µM (inactive) | – | > 100 µM (inactive) | – | > 100 µM (inactive) | > 100 µM (inactive) | > 100 µM (inactive) | > 100 µM (inactive) | – | – | – |
| COc1ccc(COCC(Cn2ccnc2)OCc2ccc(C(=O)O)cc2)cc1 (configuration not stated) | > 100 µM (inactive) | – | > 100 µM (inactive) | > 100 µM (inactive) | > 100 µM (inactive) | – | > 100 µM (inactive) | > 100 µM (inactive) | > 100 µM (inactive) | > 100 µM (inactive) | > 100 µM (inactive) | > 100 µM (inactive) | > 100 µM (inactive) | > 100 µM | > 100 µM (inactive) | > 100 µM (inactive) |
